Active and inactive are the calls of the source.
Assays:
Protein RecA = molecular target: T1, Protein RecA (Mycobacterium tuberculosis, UniProt P9WHJ3); assay: Fluorescence Cell-Free Homogeneous Dose Retest to Identify Inhibitors of RecA-Intein Splicing Activity. [Related pubchem assays (depositor defined):AID2097, AID2223, AID489010, AID492950]; assay type: functional
T1 sequence (P9WHJ3 whole entry): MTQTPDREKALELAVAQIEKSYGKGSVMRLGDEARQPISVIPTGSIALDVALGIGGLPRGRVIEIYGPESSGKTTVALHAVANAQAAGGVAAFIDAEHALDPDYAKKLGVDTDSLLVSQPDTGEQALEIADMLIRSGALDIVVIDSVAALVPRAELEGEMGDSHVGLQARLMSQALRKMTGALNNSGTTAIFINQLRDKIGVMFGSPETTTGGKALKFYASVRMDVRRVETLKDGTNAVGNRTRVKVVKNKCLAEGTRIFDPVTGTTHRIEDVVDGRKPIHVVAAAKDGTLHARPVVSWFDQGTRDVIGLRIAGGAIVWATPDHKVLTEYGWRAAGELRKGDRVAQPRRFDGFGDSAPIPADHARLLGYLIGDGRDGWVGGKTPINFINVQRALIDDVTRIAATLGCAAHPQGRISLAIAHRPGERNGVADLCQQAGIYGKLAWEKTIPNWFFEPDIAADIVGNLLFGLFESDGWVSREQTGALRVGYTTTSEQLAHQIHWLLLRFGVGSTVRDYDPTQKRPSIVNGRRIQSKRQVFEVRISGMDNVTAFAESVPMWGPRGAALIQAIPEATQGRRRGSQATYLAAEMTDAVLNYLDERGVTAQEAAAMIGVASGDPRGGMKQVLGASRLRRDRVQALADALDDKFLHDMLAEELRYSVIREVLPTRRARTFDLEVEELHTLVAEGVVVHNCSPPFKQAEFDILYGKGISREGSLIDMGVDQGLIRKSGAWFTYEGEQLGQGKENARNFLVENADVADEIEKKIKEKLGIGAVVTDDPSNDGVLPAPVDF

[1] = molecular target: T2, Histone-lysine N-methyltransferase NSD2 (Homo sapiens, UniProt O96028); assay type: biochemical
T2 sequence (O96028 whole entry): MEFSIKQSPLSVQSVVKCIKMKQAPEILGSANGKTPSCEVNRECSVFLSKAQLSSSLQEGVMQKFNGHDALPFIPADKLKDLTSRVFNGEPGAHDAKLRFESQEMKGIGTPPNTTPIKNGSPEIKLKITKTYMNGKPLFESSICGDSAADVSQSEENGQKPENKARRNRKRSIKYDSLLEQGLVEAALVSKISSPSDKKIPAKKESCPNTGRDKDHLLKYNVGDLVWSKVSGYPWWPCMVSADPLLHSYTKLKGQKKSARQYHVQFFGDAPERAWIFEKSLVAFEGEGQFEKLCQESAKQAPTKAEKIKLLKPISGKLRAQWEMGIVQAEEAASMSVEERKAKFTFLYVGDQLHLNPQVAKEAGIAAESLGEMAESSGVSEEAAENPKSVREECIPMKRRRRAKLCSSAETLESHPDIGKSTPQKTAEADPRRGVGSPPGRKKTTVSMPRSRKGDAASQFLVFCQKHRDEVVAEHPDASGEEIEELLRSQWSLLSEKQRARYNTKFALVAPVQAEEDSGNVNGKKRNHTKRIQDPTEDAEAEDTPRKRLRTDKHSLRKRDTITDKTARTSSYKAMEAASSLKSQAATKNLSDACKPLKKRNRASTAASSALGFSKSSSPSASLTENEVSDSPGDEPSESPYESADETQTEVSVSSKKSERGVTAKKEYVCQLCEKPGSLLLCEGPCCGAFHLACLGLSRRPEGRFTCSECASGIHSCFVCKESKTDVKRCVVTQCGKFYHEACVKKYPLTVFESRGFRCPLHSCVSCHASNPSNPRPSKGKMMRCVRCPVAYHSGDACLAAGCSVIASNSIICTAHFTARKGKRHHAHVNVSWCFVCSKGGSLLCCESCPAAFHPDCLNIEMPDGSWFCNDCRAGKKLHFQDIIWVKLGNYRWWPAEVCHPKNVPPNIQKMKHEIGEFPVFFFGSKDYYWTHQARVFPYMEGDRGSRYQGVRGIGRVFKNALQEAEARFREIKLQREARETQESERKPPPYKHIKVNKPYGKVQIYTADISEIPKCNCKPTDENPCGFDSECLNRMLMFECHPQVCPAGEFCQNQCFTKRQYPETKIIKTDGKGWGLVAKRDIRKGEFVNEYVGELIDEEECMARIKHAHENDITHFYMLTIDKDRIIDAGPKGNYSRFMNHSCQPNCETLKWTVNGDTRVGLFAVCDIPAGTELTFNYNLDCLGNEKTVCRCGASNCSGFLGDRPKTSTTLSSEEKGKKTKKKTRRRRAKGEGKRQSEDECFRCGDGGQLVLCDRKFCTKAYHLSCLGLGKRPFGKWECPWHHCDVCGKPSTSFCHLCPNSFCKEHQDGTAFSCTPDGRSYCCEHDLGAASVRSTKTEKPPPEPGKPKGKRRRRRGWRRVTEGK

[2] = molecular target: Ribosomal protein S6 kinase alpha-5 (Homo sapiens, UniProt O75582); assay type: functional
[3] = molecular target: Mitogen-activated protein kinase kinase kinase 20 (Homo sapiens, UniProt Q9NYL2); assay type: functional
[4] = molecular target: Serine/threonine-protein kinase Chk2 (Homo sapiens, UniProt O96017); assay type: functional;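 further: CHEK2 entry within a kinome-wide screening panel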
[5] = molecular target: Interleukin-1 receptor-associated kinase 4 (Homo sapiens, UniProt Q9NWZ3); assay type: functional
[6] = molecular target: Serine/threonine-protein kinase N2 (Homo sapiens, UniProt Q16513); assay type: functional
[7] = molecular target: Casein kinase II subunit alpha (Homo sapiens, UniProt P68400); assay type: functional
[8] = molecular target: cGMP-dependent protein kinase 1 (Homo sapiens, UniProt Q13976); assay type: functional;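 further: value from a kinome panel screen with PRKG1 as the panel member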
[9] = molecular target: Tyrosine-protein kinase Fer (Homo sapiens, UniProt P16591); assay type: functional;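 further: FER tested as one member of a kinome panel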
[10] = molecular target: RAC-gamma serine/threonine-protein kinase (Homo sapiens, UniProt Q9Y243); assay type: functional
[11] = molecular target: Tyrosine-protein kinase ITK/TSK (Homo sapiens, UniProt Q08881); assay type: functional;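 further: affinity for ITK measured as one member of a broad kinase panel profiling binding across the kinome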
[12] = molecular target: Testis-specific serine/threonine-protein kinase 2 (Homo sapiens, UniProt Q96PF2); assay type: functional;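 further: part of the Navigating the Kinome panel, target entry STK22B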
[13] = molecular target: Rho-associated protein kinase 2 (Homo sapiens, UniProt O75116); assay type: functional
[14] = molecular target: Calcium/calmodulin-dependent protein kinase type 1 (Homo sapiens, UniProt Q14012); assay type: functional
Calcium/calmodulin-dependent protein kinase type 1, sequence (Q14012 whole entry): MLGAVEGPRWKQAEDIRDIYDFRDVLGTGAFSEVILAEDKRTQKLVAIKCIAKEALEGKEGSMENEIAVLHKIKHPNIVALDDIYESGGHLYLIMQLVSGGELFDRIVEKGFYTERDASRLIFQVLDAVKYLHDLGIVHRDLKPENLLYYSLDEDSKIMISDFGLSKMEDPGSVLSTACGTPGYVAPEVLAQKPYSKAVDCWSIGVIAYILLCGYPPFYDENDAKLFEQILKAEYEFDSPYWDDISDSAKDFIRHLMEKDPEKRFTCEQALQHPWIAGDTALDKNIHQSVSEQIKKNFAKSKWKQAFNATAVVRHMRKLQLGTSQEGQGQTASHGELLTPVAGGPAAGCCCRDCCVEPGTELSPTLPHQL

Serine/threonine-protein kinase N2, sequence (Q16513 whole entry): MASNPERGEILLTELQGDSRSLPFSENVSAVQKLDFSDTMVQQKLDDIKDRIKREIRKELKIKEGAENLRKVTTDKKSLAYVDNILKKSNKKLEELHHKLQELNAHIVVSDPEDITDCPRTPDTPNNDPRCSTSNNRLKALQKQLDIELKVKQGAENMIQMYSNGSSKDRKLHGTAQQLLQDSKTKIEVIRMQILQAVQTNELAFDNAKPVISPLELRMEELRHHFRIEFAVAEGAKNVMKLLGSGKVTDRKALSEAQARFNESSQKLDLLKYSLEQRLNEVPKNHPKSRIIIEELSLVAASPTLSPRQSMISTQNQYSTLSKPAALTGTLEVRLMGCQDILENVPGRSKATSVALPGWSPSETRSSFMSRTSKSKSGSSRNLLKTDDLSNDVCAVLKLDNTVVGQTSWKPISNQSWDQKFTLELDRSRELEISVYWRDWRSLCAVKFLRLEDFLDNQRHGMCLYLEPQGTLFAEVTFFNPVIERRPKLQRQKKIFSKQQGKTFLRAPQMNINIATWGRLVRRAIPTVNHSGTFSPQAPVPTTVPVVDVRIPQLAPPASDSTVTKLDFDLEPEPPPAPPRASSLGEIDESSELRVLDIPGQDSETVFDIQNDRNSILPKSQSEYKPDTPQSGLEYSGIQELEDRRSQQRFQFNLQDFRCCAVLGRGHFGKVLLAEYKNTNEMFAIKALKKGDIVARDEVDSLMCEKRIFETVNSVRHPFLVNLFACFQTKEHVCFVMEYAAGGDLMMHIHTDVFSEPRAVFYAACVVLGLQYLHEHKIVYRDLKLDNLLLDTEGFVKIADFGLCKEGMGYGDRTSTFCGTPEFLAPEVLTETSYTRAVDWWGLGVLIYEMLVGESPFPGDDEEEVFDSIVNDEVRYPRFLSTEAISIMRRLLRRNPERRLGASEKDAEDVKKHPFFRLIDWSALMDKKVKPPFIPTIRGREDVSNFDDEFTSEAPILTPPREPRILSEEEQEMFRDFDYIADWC
Rho-associated protein kinase 2, sequence (O75116 whole entry): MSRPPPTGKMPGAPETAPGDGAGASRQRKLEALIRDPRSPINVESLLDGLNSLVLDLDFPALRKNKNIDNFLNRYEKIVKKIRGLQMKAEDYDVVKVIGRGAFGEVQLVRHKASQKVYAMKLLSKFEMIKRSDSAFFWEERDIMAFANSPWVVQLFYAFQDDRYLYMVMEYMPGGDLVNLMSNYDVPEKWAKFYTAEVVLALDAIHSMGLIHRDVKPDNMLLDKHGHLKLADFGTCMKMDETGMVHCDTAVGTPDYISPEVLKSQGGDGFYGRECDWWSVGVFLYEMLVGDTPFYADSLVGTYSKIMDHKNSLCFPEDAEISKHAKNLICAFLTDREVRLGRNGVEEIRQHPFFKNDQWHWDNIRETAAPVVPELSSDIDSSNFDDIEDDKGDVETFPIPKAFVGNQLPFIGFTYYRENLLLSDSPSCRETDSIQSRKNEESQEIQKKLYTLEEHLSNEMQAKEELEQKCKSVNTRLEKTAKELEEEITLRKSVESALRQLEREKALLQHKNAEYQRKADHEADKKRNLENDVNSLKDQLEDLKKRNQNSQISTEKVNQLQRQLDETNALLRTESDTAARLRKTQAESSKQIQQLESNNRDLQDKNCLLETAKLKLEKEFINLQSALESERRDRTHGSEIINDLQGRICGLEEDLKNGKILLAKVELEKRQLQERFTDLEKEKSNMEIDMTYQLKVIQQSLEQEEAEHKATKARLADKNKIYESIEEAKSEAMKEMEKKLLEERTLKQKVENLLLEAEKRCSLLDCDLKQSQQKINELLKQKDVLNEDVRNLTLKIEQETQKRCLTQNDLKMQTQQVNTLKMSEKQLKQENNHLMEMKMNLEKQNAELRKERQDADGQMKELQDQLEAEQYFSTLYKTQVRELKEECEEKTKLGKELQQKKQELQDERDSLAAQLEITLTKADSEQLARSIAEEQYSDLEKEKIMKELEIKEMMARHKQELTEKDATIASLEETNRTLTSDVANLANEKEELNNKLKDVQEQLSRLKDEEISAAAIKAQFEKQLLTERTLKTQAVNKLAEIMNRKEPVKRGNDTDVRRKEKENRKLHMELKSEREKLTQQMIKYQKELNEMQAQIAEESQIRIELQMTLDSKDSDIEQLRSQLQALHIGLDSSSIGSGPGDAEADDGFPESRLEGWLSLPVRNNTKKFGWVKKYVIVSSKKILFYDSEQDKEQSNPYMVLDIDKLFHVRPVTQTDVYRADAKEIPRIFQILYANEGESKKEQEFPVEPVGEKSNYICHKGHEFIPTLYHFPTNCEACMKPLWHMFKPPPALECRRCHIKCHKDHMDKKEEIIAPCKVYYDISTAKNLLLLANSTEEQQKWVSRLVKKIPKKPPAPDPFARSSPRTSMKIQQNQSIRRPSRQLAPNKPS
RAC-gamma serine/threonine-protein kinase, sequence (Q9Y243 whole entry): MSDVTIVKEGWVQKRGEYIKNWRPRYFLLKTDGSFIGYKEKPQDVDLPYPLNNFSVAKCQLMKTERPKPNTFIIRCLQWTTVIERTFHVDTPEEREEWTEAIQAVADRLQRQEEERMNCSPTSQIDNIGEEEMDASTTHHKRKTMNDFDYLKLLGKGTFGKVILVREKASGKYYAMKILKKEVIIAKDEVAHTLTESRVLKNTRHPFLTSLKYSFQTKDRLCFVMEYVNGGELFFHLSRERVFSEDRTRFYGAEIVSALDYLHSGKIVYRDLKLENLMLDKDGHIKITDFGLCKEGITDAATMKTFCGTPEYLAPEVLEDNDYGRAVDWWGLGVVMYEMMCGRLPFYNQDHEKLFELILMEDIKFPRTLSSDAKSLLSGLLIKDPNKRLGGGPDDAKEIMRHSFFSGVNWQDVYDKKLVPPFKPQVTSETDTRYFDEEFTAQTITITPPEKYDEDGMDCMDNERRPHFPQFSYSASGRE
Interleukin-1 receptor-associated kinase 4, sequence (Q9NWZ3 whole entry): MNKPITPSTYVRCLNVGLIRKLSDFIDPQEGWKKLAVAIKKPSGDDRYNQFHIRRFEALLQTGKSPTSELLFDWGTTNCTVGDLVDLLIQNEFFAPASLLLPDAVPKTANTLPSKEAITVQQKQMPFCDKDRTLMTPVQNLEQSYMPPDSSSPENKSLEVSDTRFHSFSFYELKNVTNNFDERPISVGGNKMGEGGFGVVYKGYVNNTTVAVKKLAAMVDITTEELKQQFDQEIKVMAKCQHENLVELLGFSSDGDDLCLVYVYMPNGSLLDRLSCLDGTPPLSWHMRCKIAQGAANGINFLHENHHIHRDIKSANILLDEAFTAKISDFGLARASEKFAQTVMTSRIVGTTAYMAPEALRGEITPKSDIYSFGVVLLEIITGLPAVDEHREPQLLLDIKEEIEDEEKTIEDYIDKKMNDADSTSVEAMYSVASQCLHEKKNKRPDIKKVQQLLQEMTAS
Ribosomal protein S6 kinase alpha-5, sequence (O75582 whole entry): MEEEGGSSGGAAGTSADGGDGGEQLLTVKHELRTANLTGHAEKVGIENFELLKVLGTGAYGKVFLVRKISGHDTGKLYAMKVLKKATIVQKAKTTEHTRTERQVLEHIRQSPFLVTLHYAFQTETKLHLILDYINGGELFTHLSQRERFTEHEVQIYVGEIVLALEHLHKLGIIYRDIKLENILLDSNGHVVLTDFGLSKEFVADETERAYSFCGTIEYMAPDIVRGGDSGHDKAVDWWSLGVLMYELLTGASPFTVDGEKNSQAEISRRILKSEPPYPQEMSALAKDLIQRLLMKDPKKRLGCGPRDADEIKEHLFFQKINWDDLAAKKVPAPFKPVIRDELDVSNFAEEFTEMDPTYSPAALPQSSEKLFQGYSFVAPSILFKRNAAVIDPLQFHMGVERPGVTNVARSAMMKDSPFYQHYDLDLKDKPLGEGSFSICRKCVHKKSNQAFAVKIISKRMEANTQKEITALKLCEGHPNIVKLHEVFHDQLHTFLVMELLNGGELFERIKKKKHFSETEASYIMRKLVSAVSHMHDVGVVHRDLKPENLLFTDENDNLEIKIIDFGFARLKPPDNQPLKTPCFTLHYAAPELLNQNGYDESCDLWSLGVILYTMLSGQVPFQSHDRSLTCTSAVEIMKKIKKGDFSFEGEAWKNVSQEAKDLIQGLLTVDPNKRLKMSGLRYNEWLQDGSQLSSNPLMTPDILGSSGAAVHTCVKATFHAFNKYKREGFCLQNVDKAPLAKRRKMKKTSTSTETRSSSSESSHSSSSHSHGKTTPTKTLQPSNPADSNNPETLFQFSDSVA
Casein kinase II subunit alpha, sequence (P68400 whole entry): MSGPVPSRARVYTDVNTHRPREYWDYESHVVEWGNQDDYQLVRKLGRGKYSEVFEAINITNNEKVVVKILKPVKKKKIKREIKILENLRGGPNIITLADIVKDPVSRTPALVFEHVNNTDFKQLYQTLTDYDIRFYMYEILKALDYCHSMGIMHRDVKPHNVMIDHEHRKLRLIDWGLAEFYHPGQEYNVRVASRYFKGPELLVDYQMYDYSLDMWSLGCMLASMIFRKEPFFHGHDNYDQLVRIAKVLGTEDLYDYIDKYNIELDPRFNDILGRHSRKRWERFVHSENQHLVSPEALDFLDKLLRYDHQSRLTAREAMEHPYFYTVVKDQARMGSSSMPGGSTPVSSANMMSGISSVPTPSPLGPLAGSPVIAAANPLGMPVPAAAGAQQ

Cc1ccc(NC2=C(NCCO)C(=O)c3ccccc3C2=O)cc1
EC50 (Protein RecA): 11.7 µM (active)

CC(/C=C1\SC(=S)N(NS(=O)(=O)c2ccc(C)cc2)C1=O)=C\c1ccccc1
AC50 [1]: 9.98 µM (active)

CN1CCC(c2c(O)cc(O)c3c(=O)cc(-c4ccccc4Cl)oc23)C(O)C1 (stereo not given)
Ki [2]: > 2 µM (inactive) | Ki [3]: > 7.94 µM (inactive) | Ki [4]: > 1.58 µM (inactive) | Ki [5]: 5.01 µM (active) | Ki [6]: 5.01 µM (active) | Ki [7]: > 6.31 µM (inactive) | Ki [8]: > 2 µM (inactive) | Ki [9]: > 1.58 µM (inactive) | Ki [10]: > 10 µM (inactive) | Ki [11]: > 1.58 µM (inactive) | Ki [12]: > 1.58 µM (inactive) | Ki [13]: > 6.31 µM (inactive) | Ki [14]: > 3.16 µM (inactive)

Reference: ChEMBL document CHEMBL1201862, “PubChem BioAssay data set” (2004)
